{"source": "patent US20230398130A1", "about": "“METHODS AND COMPOSITIONS FOR DIFFERENTIATING STEM CELLS” (Massachusetts Institute of Technology, priority 2020, published 2023)", "key": {"[1]": {"system": "ISC-enriched organoids", "assay": "Primary screen, 384-well 2.5-D organoid differentiation (ENR+CD, 6 days): carbachol-induced lysozyme secretion (LYZ.S)", "assay_type": "cell-based, murine", "settings": "for Dose.FC.LYZ.S: FC vs plate median; for Z.LYZ.S: standard z score; for SSMD.LYZ.S: strictly standardized mean difference; for Dose.FC.LYZ.S (log 2 fold change): vs plate median", "text": "(§1) High-throughput screening."}, "[2]": {"system": "ISC-enriched organoids", "assay": "Primary screen, 384-well 2.5-D organoid differentiation (ENR+CD, 6 days): basal lysozyme secretion (LYZ.NS)", "assay_type": "cell-based, murine", "settings": "for Dose.FC.LYZ.NS: FC vs plate median; for SSMD.LYZ.NS: strictly standardized mean difference; for Dose.FC.LYZ.NS (log 2 fold change): vs plate median", "text": "as §1"}, "[3]": {"system": "ISC-enriched organoids", "assay": "Primary screen, 384-well 2.5-D organoid differentiation (ENR+CD, 6 days, Target Selective Inhibitor Library, vs whole-plate median): ATP (CellTiter-Glo 3D, CTG)", "settings": "for Dose.FC.CTG: FC vs plate median; for SSMD.CTG: strictly standardized mean difference; for Dose.FC.CTG (log 2 fold change): vs plate median"}, "[4]": {"settings": "Dose 0.08 uM, primary screen, standard z score"}, "[5]": {"settings": "Dose 0.40 uM, primary screen, standard z score"}, "[6]": {"settings": "Dose 2.00 uM, primary screen, standard z score"}, "[7]": {"settings": "Dose 10.00 uM, primary screen, standard z score"}, "[8]": {"settings": "primary screen, 1st of the 4 dose lines of the treatment (dose not given)"}, "[9]": {"settings": "primary screen, 2nd of the 4 dose lines of the treatment (dose not given)"}, "[10]": {"settings": "primary screen, 3rd of the 4 dose lines of the treatment (dose not given)"}, "[11]": {"settings": "primary screen, 4th of the 4 dose lines of the treatment (dose not given)"}, "[12]": {"settings": "Dose 0.08 uM, standard z score of FC"}, "[13]": {"settings": "Dose 0.40 uM, standard z score of FC"}, "[14]": {"settings": "Dose 2.00 uM, standard z score of FC"}, "[15]": {"settings": "Dose 10.00 uM, standard z score of FC"}}, "data": [{"compound": "CCn1c(-c2nonc2N)nc2c(C#CC(C)(C)O)ncc(OC[C@H]3CCCNC3)c21", "note": "[GSK690693]", "values": [{"measurement": "Dose.FC.LYZ.S", "setting": "[1]; Dose 0.08 uM, primary screen", "value": 0.019, "unit": "log 2 fold change"}, {"measurement": "Dose.FC.LYZ.S", "setting": "[1]; Dose 0.40 uM, primary screen", "value": 0.155, "unit": "log 2 fold change"}, {"measurement": "Dose.FC.LYZ.S", "setting": "[1]; Dose 2.00 uM, primary screen", "value": 0.124, "unit": "log 2 fold change"}, {"measurement": "Dose.FC.LYZ.S", "setting": "[1]; Dose 10.00 uM, primary screen", "value": "−0.153", "unit": "log 2 fold change"}, {"measurement": "Dose.FC.LYZ.NS", "setting": "[2]; Dose 0.08 uM, primary screen", "value": 0.045, "unit": "log 2 fold change"}, {"measurement": "Z.LYZ.NS", "setting": "[2]; [4]", "value": 0.388}, {"measurement": "Dose.FC.LYZ.NS", "setting": "[2]; Dose 0.40 uM, primary screen", "value": 0.047, "unit": "log 2 fold change"}, {"measurement": "Z.LYZ.NS", "setting": "[2]; [5]", "value": 0.409}, {"measurement": "Dose.FC.LYZ.NS", "setting": "[2]; Dose 2.00 uM, primary screen", "value": 0.122, "unit": "log 2 fold change"}, {"measurement": "Z.LYZ.NS", "setting": "[2]; [6]", "value": 1.060}, {"measurement": "Dose.FC.LYZ.NS", "setting": "[2]; Dose 10.00 uM, primary screen", "value": "−0.080", "unit": "log 2 fold change"}, {"measurement": "Z.LYZ.NS", "setting": "[2]; [7]", "value": "−0.698"}, {"measurement": "Dose.FC.CTG", "setting": "[3]; Dose 0.08 uM, primary screen", "value": 0.129, "unit": "log 2 fold change"}, {"measurement": "Z.CTG", "setting": "[3]; [4]", "value": 0.308}, {"measurement": "Dose.FC.CTG", "setting": "[3]; Dose 0.40 uM, primary screen", "value": 0.197, "unit": "log 2 fold change"}, {"measurement": "Z.CTG", "setting": "[3]; [5]", "value": 0.470}, {"measurement": "Dose.FC.CTG", "setting": "[3]; Dose 2.00 uM, primary screen", "value": "−0.027", "unit": "log 2 fold change"}, {"measurement": "Z.CTG", "setting": "[3]; [6]", "value": "−0.064"}, {"measurement": "Dose.FC.CTG", "setting": "[3]; Dose 10.00 uM, primary screen", "value": "−0.182", "unit": "log 2 fold change"}, {"measurement": "Z.CTG", "setting": "[3]; [7]", "value": "−0.434"}]}, {"compound": "CCN(CC)CC(=O)Nc1c(C)cccc1C", "note": "[Lidocaine]", "values": [{"measurement": "Z.LYZ.S", "setting": "[1]; [8]", "value": 0.537}, {"measurement": "Z.LYZ.S", "setting": "[1]; [9]", "value": 0.167}, {"measurement": "Z.LYZ.S", "setting": "[1]; [10]", "value": "−0.244"}, {"measurement": "Z.LYZ.S", "setting": "[1]; [11]", "value": "−0.061"}, {"measurement": "SSMD.LYZ.S", "setting": "[1]; [8]", "value": 0.448}, {"measurement": "SSMD.LYZ.S", "setting": "[1]; [9]", "value": 0.197}, {"measurement": "SSMD.LYZ.S", "setting": "[1]; [10]", "value": "−0.268"}, {"measurement": "SSMD.LYZ.S", "setting": "[1]; [11]", "value": "−0.070"}, {"measurement": "SSMD.LYZ.NS", "setting": "[2]; [8]", "value": 0.904}, {"measurement": "SSMD.LYZ.NS", "setting": "[2]; [9]", "value": 0.132}, {"measurement": "SSMD.LYZ.NS", "setting": "[2]; [10]", "value": 0.008}, {"measurement": "SSMD.LYZ.NS", "setting": "[2]; [11]", "value": 0.183}, {"measurement": "Z.CTG", "setting": "[3]; [4]", "value": "−0.188"}, {"measurement": "Z.CTG", "setting": "[3]; [5]", "value": "−0.365"}, {"measurement": "Z.CTG", "setting": "[3]; [6]", "value": 0.081}, {"measurement": "Z.CTG", "setting": "[3]; [7]", "value": "−0.611"}, {"measurement": "SSMD.CTG", "setting": "[3]; [8]", "value": "−0.237"}, {"measurement": "SSMD.CTG", "setting": "[3]; [9]", "value": "−0.371"}, {"measurement": "SSMD.CTG", "setting": "[3]; [10]", "value": 0.116}, {"measurement": "SSMD.CTG", "setting": "[3]; [11]", "value": "−0.889"}]}, {"compound": "CC(C)NC[C@@H](C(=O)N1CCN(c2ncnc3c2[C@H](C)C[C@H]3O)CC1)c1ccc(Cl)cc1", "note": "[GDC-0068]", "values": [{"measurement": "Dose.FC.LYZ.S", "setting": "[1]; Dose 0.08 uM, ENR+CD, 6 days", "value": 0.076, "unit": "log 2 fold change"}, {"measurement": "Dose.FC.LYZ.S", "setting": "[1]; Dose 0.40 uM, ENR+CD, 6 days", "value": 0.087, "unit": "log 2 fold change"}, {"measurement": "Dose.FC.LYZ.S", "setting": "[1]; Dose 2.00 uM, ENR+CD, 6 days", "value": "−0.059", "unit": "log 2 fold change"}, {"measurement": "Dose.FC.LYZ.S", "setting": "[1]; Dose 10.00 uM, ENR+CD, 6 days", "value": "−0.319", "unit": "log 2 fold change"}, {"measurement": "Dose.FC.LYZ.NS", "setting": "[2]; Dose 0.08 uM, ENR+CD, 6 days", "value": 0.036, "unit": "log 2 fold change"}, {"measurement": "Z.LYZ.NS", "setting": "[2]; [12]", "value": 0.311}, {"measurement": "Dose.FC.LYZ.NS", "setting": "[2]; Dose 0.40 uM, ENR+CD, 6 days", "value": 0.054, "unit": "log 2 fold change"}, {"measurement": "Z.LYZ.NS", "setting": "[2]; [13]", "value": 0.469}, {"measurement": "Dose.FC.LYZ.NS", "setting": "[2]; Dose 2.00 uM, ENR+CD, 6 days", "value": "−0.077", "unit": "log 2 fold change"}, {"measurement": "Z.LYZ.NS", "setting": "[2]; [14]", "value": "−0.675"}, {"measurement": "Dose.FC.LYZ.NS", "setting": "[2]; Dose 10.00 uM, ENR+CD, 6 days", "value": "−0.185", "unit": "log 2 fold change"}, {"measurement": "Z.LYZ.NS", "setting": "[2]; [15]", "value": "−1.613"}, {"measurement": "Dose.FC.CTG", "setting": "[3]; Dose 0.08 uM, ENR+CD, 6 days", "value": 0.042, "unit": "log 2 fold change"}, {"measurement": "Z.CTG", "setting": "[3]; [12]", "value": 0.099}, {"measurement": "Dose.FC.CTG", "setting": "[3]; Dose 0.40 uM, ENR+CD, 6 days", "value": 0.118, "unit": "log 2 fold change"}, {"measurement": "Z.CTG", "setting": "[3]; [13]", "value": 0.283}, {"measurement": "Dose.FC.CTG", "setting": "[3]; Dose 2.00 uM, ENR+CD, 6 days", "value": 0.184, "unit": "log 2 fold change"}, {"measurement": "Z.CTG", "setting": "[3]; [14]", "value": 0.439}, {"measurement": "Dose.FC.CTG", "setting": "[3]; Dose 10.00 uM, ENR+CD, 6 days", "value": "−0.100", "unit": "log 2 fold change"}, {"measurement": "Z.CTG", "setting": "[3]; [15]", "value": "−0.238"}]}, {"compound": "SNS-314 Mesylate", "values": [{"measurement": "Dose.FC.LYZ.S (log 2 fold change)", "setting": "[1]; Dose 0.08 uM, primary screen", "value": "−0.115"}, {"measurement": "Dose.FC.LYZ.S (log 2 fold change)", "setting": "[1]; Dose 0.40 uM, primary screen", "value": "−0.103"}, {"measurement": "Dose.FC.LYZ.S (log 2 fold change)", "setting": "[1]; Dose 2.00 uM, primary screen", "value": "−0.133"}, {"measurement": "Dose.FC.LYZ.S (log 2 fold change)", "setting": "[1]; Dose 10.00 uM, primary screen", "value": "−0.198"}, {"measurement": "Z.LYZ.NS (standard z score)", "setting": "[2]; Dose 0.08 uM, primary screen", "value": "−0.620"}, {"measurement": "Dose.FC.LYZ.NS (log 2 fold change)", "setting": "[2]; Dose 0.08 uM, primary screen", "value": "−0.071"}, {"measurement": "Z.LYZ.NS (standard z score)", "setting": "[2]; Dose 0.40 uM, primary screen", "value": "−0.515"}, {"measurement": "Dose.FC.LYZ.NS (log 2 fold change)", "setting": "[2]; Dose 0.40 uM, primary screen", "value": "−0.059"}, {"measurement": "Z.LYZ.NS (standard z score)", "setting": "[2]; Dose 2.00 uM, primary screen", "value": "−1.111"}, {"measurement": "Dose.FC.LYZ.NS (log 2 fold change)", "setting": "[2]; Dose 2.00 uM, primary screen", "value": "−0.128"}, {"measurement": "Z.LYZ.NS (standard z score)", "setting": "[2]; Dose 10.00 uM, primary screen", "value": "−1.109"}, {"measurement": "Dose.FC.LYZ.NS (log 2 fold change)", "setting": "[2]; Dose 10.00 uM, primary screen", "value": "−0.127"}, {"measurement": "Z.CTG (standard z score)", "setting": "[3]; Dose 0.08 uM, primary screen", "value": "−1.591"}, {"measurement": "Dose.FC.CTG (log 2 fold change)", "setting": "[3]; Dose 0.08 uM, primary screen", "value": "−0.666"}, {"measurement": "Z.CTG (standard z score)", "setting": "[3]; Dose 0.40 uM, primary screen", "value": "−1.857"}, {"measurement": "Dose.FC.CTG (log 2 fold change)", "setting": "[3]; Dose 0.40 uM, primary screen", "value": "−0.777"}, {"measurement": "Z.CTG (standard z score)", "setting": "[3]; Dose 2.00 uM, primary screen", "value": "−1.142"}, {"measurement": "Dose.FC.CTG (log 2 fold change)", "setting": "[3]; Dose 2.00 uM, primary screen", "value": "−0.478"}, {"measurement": "Z.CTG (standard z score)", "setting": "[3]; Dose 10.00 uM, primary screen", "value": "−1.480"}, {"measurement": "Dose.FC.CTG (log 2 fold change)", "setting": "[3]; Dose 10.00 uM, primary screen", "value": "−0.620"}]}]}
